Data as given in patent US8946478B2, “Benzamide derivative with anticancer activity and preparation method and use thereof” (Zhejiang Hisun Pharmaceutical Co., Ltd., priority 2010, dated 2015).

Legend:
[1] = system: human colon cancer cell strain Colo205 xenograft; experiment: Human cancer xenograft tumor model in nude mouse; format: in vivo, BALB/C nude mice; settings: Colo-205 model, 21 d, intraperitoneal once a day, T/C < 60% = effective
Text: (§1) 5-6 week old female or male BALB/C nude mice, about 18-20 g in weight, were raised. Human cancer xenograft tumor model in nude mouse was established by the following steps: human colon cancer cell strains HCT-116 and Colo205, human breast cancer cell strain MDA-MB435, human prostate cancer cell strain BXPC-3, human ovarian cancer cell strain SKOV-3, human lung cancer cell strain A549, human pancreatic cancer cell strain PANC-1, and human uterine cancer cell strain Hela were all obtained from ATCC. Each cell strain was cultured, and monolayer of cultured tumor cells were digested off the walls, collected and resuspended in serum-free culture medium, and adjusted to a concentration of 2×10^6/0.2 mL, which was then brought to the animal room in an ice box. 0.2 mL cell suspension was drawn directly by a syringe with […] and subcutaneously transplanted into the scapula part of the rear part of nude mouse's left armpit, 2×10^6/0.2 mL for each mouse, and the tumor volume was measured every 2-3 days. After two weeks, tumor was removed under sterile conditions from tumor-bearing nude mice with vigorous tumor growth and without diabrosis. The tumor tissue was cut into pieces of about 2˜3 mm and inoculated subcutaneously into the scapula part of the rear part of nude mouse's left armpit. After three passages, when the tumor volume reached 100 mm^3, the nude mice with too large or too small tumors were eliminated and the rest were randomly divided into groups for the administration.
(§2) The mice were randomly divided into 5 groups, including negative control group (solvent), positive control group (BSI-201, 80 mg/kg), and three treatment groups with high, middle and low doses (40 mg/kg, 30 mg/kg, and 20 mg/kg respectively, wherein the high dose was below the MTD), and there were 8 nude mice in each group except that there are 16 ones in the negative control group. They were administered by intraperitoneal injection once a day for 3 consecutive weeks, during which body weight and tumor volume of the animals were detected and the death number of animals was recorded every 2 days. The animals were sacrificed 24 hours after the last administration, and the volume sizes of tumor, tumor weight, and body weight of nude mice were measured; growth curves of tumor volume, growth curves of body weight of nude mice and tumor inhibition rate, animal mortality were plotted, and relative tumor proliferation rate T/C (%) was calculated according to the equation T/C (%)=TRTV/CRTV*100%. (TRTV: RTV of the treatment group; CRTV: RTV of the negative control group, relative tumor volume RTV=Vt/V0, wherein V0 is the tumor volume when the mice were divided into groups for administration, Vt is the tumor volume after the administration).

[2] = system: human colon cancer cell strain HCT-116 xenograft; experiment: Human cancer xenograft tumor model in nude mouse; format: in vivo, BALB/C nude mice; settings: HCT-116 model, 21 d, intraperitoneal once a day, T/C < 60% = effective
Text: as §1, §2

[3] = system: human lung cancer cell strain A549 xenograft; experiment: Human cancer xenograft tumor model in nude mouse; format: in vivo, BALB/C nude mice; settings: 21 d, intraperitoneal once a day, T/C < 60% = effective
Text: as §1, §2

[4] = system: human uterine cancer cell strain Hela xenograft; experiment: Human cancer xenograft tumor model in nude mouse; format: in vivo, BALB/C nude mice; settings: 21 d, intraperitoneal once a day, T/C < 60% = effective
Text: as §1, §2

[5] = system: human ovarian cancer cell strain SKOV-3 xenograft; experiment: Human cancer xenograft tumor model in nude mouse; format: in vivo, BALB/C nude mice; settings: SKOV-3 model, 21 d, intraperitoneal once a day, T/C < 60% = effective
Text: as §1, §2

[6] = system: human prostate cancer cell strain BXPC-3 xenograft; experiment: Human cancer xenograft tumor model in nude mouse; format: in vivo, BALB/C nude mice; settings: BXPC-3 model, 22 d, intraperitoneal once a day, T/C < 60% = effective
Text: as §1, §2

[7] = system: human breast cancer cell strain MDA-MB435 xenograft; experiment: Human cancer xenograft tumor model in nude mouse; format: in vivo, BALB/C nude mice; settings: MDA-MB-435 model, 21 d, intraperitoneal once a day, T/C < 60% = effective
Text: as §1, §2

[8] = system: human pancreatic cancer cell strain PANC-1 xenograft; experiment: Human cancer xenograft tumor model in nude mouse; format: in vivo, BALB/C nude mice; settings: PANC-1 model, 21 d, intraperitoneal once a day, T/C < 60% = effective
Text: as §1, §2

[9] = system: human cancer xenograft tumor models; experiment: In vivo efficacy screening, summary over the xenograft models; design: species or system BALB/C nude mice; settings: 30 mg/kg I-1 against 80 mg/kg BSI-201, nude mouse xenografts
Text: 5-6 week old female or male BALB/C nude mice, about 18-20 g in weight, were raised. Human cancer xenograft tumor model in nude mouse was established by the following steps: human colon cancer cell strains HCT-116 and Colo205, human breast cancer cell strain MDA-MB435, human prostate cancer cell strain BXPC-3, human ovarian cancer cell strain SKOV-3, human lung cancer cell strain A549, human pancreatic cancer cell strain PANC-1, and human uterine cancer cell strain Hela were all obtained from ATCC. […] 0.2 mL cell suspension was drawn directly by a syringe with […] and subcutaneously transplanted into the scapula part of the rear part of nude mouse's left armpit, 2×10^6/0.2 mL for each mouse, and the tumor volume was measured every 2-3 days. […]
The mice were randomly divided into 5 groups, including negative control group (solvent), positive control group (BSI-201, 80 mg/kg), and three treatment groups with high, middle and low doses (40 mg/kg, 30 mg/kg, and 20 mg/kg respectively, wherein the high dose was below the MTD), and there were 8 nude mice in each group except that there are 16 ones in the negative control group. They were administered by intraperitoneal injection once a day for 3 consecutive weeks, during which body weight and tumor volume of the animals were detected and the death number of animals was recorded every 2 days. […]

Question: Which “Relative tumor proliferation rate T/C (%)” value ([1]; 80 mg/kg) does the source give for `NC(=O)c1ccc(I)c([N+](=O)[O-])c1` [BSI-201, 4-iodo-3-nitrobenzamide, reference compound] here?
Answer: 50%(80, 21)

Question: And the “Relative tumor proliferation rate T/C (%)” value ([2]; 80 mg/kg)?
Answer: 54%(80, 21)

Question: And the “Relative tumor proliferation rate T/C (%)” value ([3]; 80 mg/kg)?
Answer: 42%(80, 21)

Question: And the “Relative tumor proliferation rate T/C (%)” value ([4]; 80 mg/kg)?
Answer: 48%(80, 21)

Question: What about the “Relative tumor proliferation rate T/C (%)” value ([5]; 80 mg/kg) of the same molecule?
Answer: 41%(80, 21)

Question: What about the “Relative tumor proliferation rate T/C (%)” value ([6]; 80 mg/kg) of the same molecule?
Answer: 48%(80, 22)

Question: And the “Relative tumor proliferation rate T/C (%)” value ([7]; 80 mg/kg)?
Answer: 44%(80, 21)

Question: What about the “Relative tumor proliferation rate T/C (%)” value ([8]; 80 mg/kg) of the same molecule?
Answer: 45%(80, 21)

Question: `C#Cc1ccc(C(N)=O)cc1[N+](=O)[O-]` [Compound I-1, 4-ethynyl-3-nitrobenzamide] was tested. Which “in vivo efficacy compared with BSI-201 (in words)” value [9] did it give?
Answer: equivalent efficacy to that of 80 mg/kg BSI-201

Question: What about the “Relative tumor proliferation rate T/C (%)” value ([1]; 30 mg/kg) of the same molecule?
Answer: 42%(30, 21)

Question: And the “Relative tumor proliferation rate T/C (%)” value ([2]; 30 mg/kg)?
Answer: 52%(30, 21)

Question: What about the “Relative tumor proliferation rate T/C (%)” value ([3]; 30 mg/kg) of the same molecule?
Answer: 40%(30, 21)

Question: And the “Relative tumor proliferation rate T/C (%)” value ([4]; 30 mg/kg)?
Answer: 50%(30, 21)

Question: And the “Relative tumor proliferation rate T/C (%)” value ([5]; 30 mg/kg)?
Answer: 45%(30, 21)

Question: What about the “Relative tumor proliferation rate T/C (%)” value ([6]; 30 mg/kg) of the same molecule?
Answer: 43%(30, 22)

Question: What about the “Relative tumor proliferation rate T/C (%)” value ([7]; 30 mg/kg) of the same molecule?
Answer: 40%(30, 21)

Question: What about the “Relative tumor proliferation rate T/C (%)” value ([8]; 30 mg/kg) of the same molecule?
Answer: 40%(30, 21)
